The results in this text go back to patent US5387602A, “1.5-diphenyl-3-(N-hydroxycarbamoyloxyalkyl)pyrazoles” (Ortho Pharmaceutical Corporation, priority 1993, dated 1995).

The target of assay [1] is T1, RBL-1 Cell 5-Lipoxygenase (Rattus norvegicus, UniProt P12527).
T1 construct: the supernatant was saved as the source of enzymes; endogenous in cells; host or cells: RBL-1 (rat basophilic leukemia cells), 10,000×g supernatant of homogenate
T1 sequence (P12527 1-673): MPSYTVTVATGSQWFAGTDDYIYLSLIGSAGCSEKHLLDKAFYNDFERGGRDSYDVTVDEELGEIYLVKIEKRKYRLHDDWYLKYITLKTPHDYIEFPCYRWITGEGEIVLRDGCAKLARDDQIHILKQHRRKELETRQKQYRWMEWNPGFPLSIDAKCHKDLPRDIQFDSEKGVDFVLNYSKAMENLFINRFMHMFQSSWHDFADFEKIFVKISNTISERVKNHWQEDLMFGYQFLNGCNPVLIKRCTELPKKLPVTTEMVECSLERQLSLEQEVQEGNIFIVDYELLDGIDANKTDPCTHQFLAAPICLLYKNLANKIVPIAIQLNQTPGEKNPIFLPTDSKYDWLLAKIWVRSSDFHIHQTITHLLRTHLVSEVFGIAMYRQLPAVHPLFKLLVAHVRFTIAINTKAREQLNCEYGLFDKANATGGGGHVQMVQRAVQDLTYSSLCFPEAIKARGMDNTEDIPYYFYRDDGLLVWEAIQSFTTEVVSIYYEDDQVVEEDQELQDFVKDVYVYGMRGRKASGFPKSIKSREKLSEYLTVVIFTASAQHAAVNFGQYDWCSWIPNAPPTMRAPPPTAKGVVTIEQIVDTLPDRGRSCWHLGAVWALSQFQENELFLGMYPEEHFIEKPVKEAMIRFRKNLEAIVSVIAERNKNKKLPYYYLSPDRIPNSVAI
Put plainly: Procedure II: 5-lipoxygenase inhibition in disrupted RBL-1 cells (supernatant as enzyme source). It is filed as biochemical. As to conditions: for pIC50: read-out: IC50 5-LO (Procedure II). The method, then:
(§1) RBL-1 Cell 5-Lipoxygenase and Cyclooxygenase
(§2) Rat basophilic leukemia cells (RBL-1; 5×10^7 viable cells/mL) were disrupted by homogenization on ice (four 20 sec bursts) with a Brinkman polytron. Complete cell breakage was verified microscopically. The homogenate was then centrifuged at 10,000×g for 48 minutes at 4° C. The pellet was discarded and the supernatant was saved as the source of enzymes. The supernatant was pre-incubated for five minutes at 37° C. in the presence of 2 mM of CaCl2 and compound or vehicle (1% DMSO). The conversion of AA into 5-LO products was initiated by adding 10 μL (50 μCi) of 1-^14 C-AA to each tube and incubated at 37° C. for 20 minutes. The reaction was stopped by adjusting the pH of each sample to 3 to 3.5 with 2M formic acid. Samples were extracted with three volumes of chloroform to isolate the products of 5-LO formed during the reaction. Fractions were dried under nitrogen, then resuspended in 40 μL of chloroform and spotted onto silica gel HL plates. The plates were developed in A-9 solvent. The dried plates were analyzed using a Bioscan Imaging TLC scanner to determine the percentage of radiolabelled AA converted to 5-HETE in each sample.
(§3) In the following tables, the superscripts indicate the number of experiments and, unless otherwise stated, the dose at which % inhibition is reported is 3 MPK.

A further assay deals with T2, CO in intact RBL-1 cells (Rattus norvegicus, UniProt Q63921).
T2 construct: 5-LO and CO in intact RBL-1 cells; endogenous in cells; host or cells: RBL-1 (rat basophilic leukemia cells), intact
T2 sequence (Q63921 27-602): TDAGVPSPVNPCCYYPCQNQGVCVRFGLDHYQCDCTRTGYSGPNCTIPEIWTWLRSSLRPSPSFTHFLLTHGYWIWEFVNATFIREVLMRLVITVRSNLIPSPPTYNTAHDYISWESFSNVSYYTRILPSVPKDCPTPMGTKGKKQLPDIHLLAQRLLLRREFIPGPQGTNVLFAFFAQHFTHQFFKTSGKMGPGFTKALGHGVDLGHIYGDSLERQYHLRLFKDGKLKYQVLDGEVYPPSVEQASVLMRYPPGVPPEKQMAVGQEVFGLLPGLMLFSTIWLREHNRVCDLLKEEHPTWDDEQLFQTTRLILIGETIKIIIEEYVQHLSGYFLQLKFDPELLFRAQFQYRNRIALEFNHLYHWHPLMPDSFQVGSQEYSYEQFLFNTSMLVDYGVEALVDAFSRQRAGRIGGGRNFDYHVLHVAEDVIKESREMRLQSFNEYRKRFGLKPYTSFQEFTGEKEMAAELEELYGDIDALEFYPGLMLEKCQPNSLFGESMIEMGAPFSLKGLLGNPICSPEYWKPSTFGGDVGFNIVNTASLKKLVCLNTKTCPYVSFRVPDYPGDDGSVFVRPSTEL
Put plainly: Procedure III: inhibition of CO in intact RBL-1 cells. It is filed as cell-based. The protocol:
(§4) The ability to inhibit 5-LO and CO in intact RBL-1 cells was also evaluated. RBL-1 cells were maintained in culture in minimal essential medium (Bio*Whittaker, Walkersville, Md.), containing 12.5% fetal calf serum, 10 mg/mL streptomycin, 10 I.U./mL penicillin G, […] gentamycin and 2 mM L-glutamine (Bio*Whittaker, Walkersville, Md.). Cells were collected by centrifugation, washed once in HBSS, and resuspended at a concentration of 1×10^5 cells/mL. Cells were incubated in the presence of vehicle or drug then centrifuged at 800×g for 10 minutes at 4° C. The supernatant was removed by aspiration and the cells were resuspended in 0.5 mL of HBSS. The reaction was started by the addition of 20 μg/mL of calcium ionophore A-23187 (mixed calcium and magnesium salts, Calbiochem, La Jolla, Calif.) and allowed to proceed for 15 minutes, then stopped by plunging the tubes into a slush ice bath. The conversion of AA to 5-LO products was initiated by the addition of 10 μL (50 uCi) of 1-^14 C-AA. Products were isolated by acidification and extraction, followed by thin layer chromatography analysis as described above. Radioactive areas corresponding to authentic 5-LO and CO products were quantitated by the Bioscan 2000 Imaging System.
as §3

Assay [2] has as its target T3, 5-LO in intact RBL-1 cells (Rattus norvegicus, UniProt P12527).
T3 construct: 5-LO and CO in intact RBL-1 cells; endogenous in cells; host or cells: RBL-1 (rat basophilic leukemia cells), intact
T3 sequence (P12527 1-673): T1 sequence (P12527 1-673)
Put plainly: Procedure III: inhibition of 5-LO in intact RBL-1 cells. It counts as cell-based. The method, then:
as §4, §3

Assay [3] concerns the target T4, RBL-1 Cell Cyclooxygenase (Rattus norvegicus, UniProt Q63921).
T4 construct: the supernatant was saved as the source of enzymes; endogenous in cells; host or cells: RBL-1 (rat basophilic leukemia cells), 10,000×g supernatant of homogenate
T4 sequence (Q63921 27-602): T2 sequence (Q63921 27-602)
The assay is described as follows: Procedure II: cyclooxygenase inhibition in disrupted RBL-1 cells (supernatant as enzyme source). As to conditions: for pIC50: read-out: IC50 CO (Procedure II). It counts as biochemical. The protocol:
as §1, §2, §3

pIC50: −log10 of the molar value.

Take `COc1ccc(-n2nc(CCCOC(=O)N(C)O)c(Br)c2-c2ccc(Cl)cc2)cc1` [3-F]: the “% INHIBITION 5-LO (Procedure II)” value in assay [1] is 88%. For the same molecule, the negative-log IC50 (pIC50) was 7.22 in assay [1], 5.31 against CO in intact RBL-1 cells, 5.63 in assay [2] and 5.21 in assay [3]. In addition, the “% INHIBITION CO (Procedure II)” value in assay [3] turned out to be 100%.

With `COc1ccc(-n2nc(CCCOC(=O)N(O)C(C)C)c(Br)c2-c2ccc(Cl)cc2)cc1` [3-G], the “% INHIBITION 5-LO (Procedure II)” value in assay [1] turned out to be 80%. Also, the pIC50 is 7.52 in assay [1], 5.15 against CO in intact RBL-1 cells, 5.82 in assay [2] and 5.50 in assay [3]. In addition, in assay [3], the “% INHIBITION CO (Procedure II)” value was found to be 0%.

By pIC50 is commonly meant the IC50 on a negative log10 scale, so that one unit is a factor of ten.
